The values below come from patent US20240376100A1 (Redona Therapeutics, Inc., priority 2021, published 2024).

SMILES strings stand for the structures. A value given as a limit tells only on which side of the number the result lay.

Sequence of PAPD5 enzyme (Q8NDF8 whole entry): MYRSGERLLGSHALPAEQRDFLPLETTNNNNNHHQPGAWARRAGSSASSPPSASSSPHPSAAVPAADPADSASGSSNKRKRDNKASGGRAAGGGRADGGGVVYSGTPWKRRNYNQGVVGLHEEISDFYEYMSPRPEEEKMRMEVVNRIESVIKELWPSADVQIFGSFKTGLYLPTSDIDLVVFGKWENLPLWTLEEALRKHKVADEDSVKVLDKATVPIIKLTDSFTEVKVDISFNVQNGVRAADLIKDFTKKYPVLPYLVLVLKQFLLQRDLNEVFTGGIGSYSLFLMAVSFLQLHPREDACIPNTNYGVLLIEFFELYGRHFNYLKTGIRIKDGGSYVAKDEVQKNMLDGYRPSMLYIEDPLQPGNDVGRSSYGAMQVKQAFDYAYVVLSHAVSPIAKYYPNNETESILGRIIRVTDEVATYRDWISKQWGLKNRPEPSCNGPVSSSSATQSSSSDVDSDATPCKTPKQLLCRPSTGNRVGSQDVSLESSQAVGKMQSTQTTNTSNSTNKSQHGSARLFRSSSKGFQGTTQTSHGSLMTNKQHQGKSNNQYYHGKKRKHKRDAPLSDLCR

For this test, the target named is PAPD5 enzyme (Homo sapiens, UniProt Q8NDF8). Nature of the test: PAPD5 assay (AMP incorporation onto 3'-terminus of RNA substrate, fluorescence quench). It counts as biochemical. The following applies: PAPD5 protein 0.3 nM, ATP 50 μM, 30 minutes preincubation, room temperature; read-out: Potency PAPD5 IC50. Summed up:
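Enzyme at 0.3 nM with 50 μM ATP, pH 7.3 HEPES buffer, preincubated with compound 30 minutes at room temperature; 5 nM 5′-fluorescein RNA substrate and 20 nM TAMRA quench probe then added. Initial rates from kinetic fluorescein decrease over ~90 minutes; IC50 by four-parameter fit.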
As for `COc1cnc(-n2cc(C(=O)O)c(=O)c3cc(Cl)c(N4Cc5cccnc5C4)cc32)cn1` [Example 76, 6-chloro-7-(5,7-dihydro-6H-pyrrolo[3,4-b]pyridin-6-yl)-1-(5-methoxypyrazin-2-yl)-4-oxo-1,4-dihydroquinoline-3-carboxylic acid], the IC50 (as a rule, the concentration at which inhibition is half-maximal) was no more than 1000 nM.
In the case of `O=C(O)c1cn(-c2ccc(O)c(F)c2)c2cc(N3Cc4cccnc4C3)c(F)cc2c1=O` [Example 28, 7-(5,7-dihydro-6H-pyrrolo[3,4-b]pyridin-6-yl)-6-fluoro-1-(3-fluoro-4-hydroxyphenyl)-4-oxo-1,4-dihydroquinoline-3-carboxylic acid] it was no more than 1000 nM; in that of `Nc1ccc(-n2cc(C(=O)O)c(=O)c3cc(Cl)c(N4Cc5cccnc5C4)nc32)cn1` [Example 51, 1-(6-aminopyridin-3-yl)-6-chloro-7-(5,7-dihydro-6H-pyrrolo[3,4-b]pyridin-6-yl)-4-oxo-1,4-dihydro-1,8-naphthyridine-3-carboxylic acid], no more than 1000 nM.
For the compound `Cc1cc(N2CC(N(C)C)C2)ncc1-n1cc(C(=O)O)c(=O)c2cc(Cl)c(N3Cc4cccnc4C3)nc21` [Example 188, 6-chloro-7-(5,7-dihydro-6H-pyrrolo[3,4-b]pyridin-6-yl)-1-(6-(3-(dimethylamino)azetidin-1-yl)-4-meth-ylpyridin-3-yl)-4-oxo-1,4-dihydro-1,8-naphthyridine-3-carboxylic acid], the IC50 is no more than 1000 nM.
In the case of `Cc1cc(N)ncc1-n1cc(C(=O)O)c(=O)c2cc(Cl)c(N3Cc4cncnc4C3)nc21` [Example 179, 1-(6-amino-4-methylpyridin-3-yl)-6-chloro-7-(5,7-dihydro-6H-pyrrolo[3,4-d]pyrimidin-6-yl)-4-oxo-1,4-dihydro-1,8-naphthyridine-3-carboxylic acid] it was no more than 1000 nM.
In the case of `O=C(O)c1cn(-c2ccc(O)cc2F)c2cc(N3Cc4ccccc4C3)c(F)cc2c1=O` [Example 32, 6-fluoro-1-(2-fluoro-4-hydroxyphenyl)-7-(isoindolin-2-yl)-4-oxo-1,4-dihydroquinoline-3-carboxylic acid] it was no more than 1000 nM; in that of `COc1ccccc1Cn1cc(C(=O)O)c(=O)c2cc(Cl)c(N3Cc4cccnc4C3)nc21` [Example 41, 6-chloro-7-(5,7-dihydro-6H-pyrrolo[3,4-b]pyridin-6-yl)-1-(2-methoxybenzyl)-4-oxo-1,4-dihydro-1,8-naphthyridine-3-carboxylic acid], no more than 1000 nM; in that of `O=C(O)c1cn(-c2ccc(CO)cc2F)c2cc(N3Cc4cccnc4C3)c(Cl)cc2c1=O` [Example 17, 6-chloro-7-(5,7-dihydro-6H-pyrrolo[3,4-b]pyridin-6-yl)-1-(2-fluoro-4-(hydroxymethyl)phenyl)-4-oxo-1,4-dihydroquinoline-3-carboxylic acid], no more than 1000 nM.
On to `CC(C)Cn1cc(C(=O)O)c(=O)c2cc(Cl)c(N3Cc4cccnc4C3)nc21` [Example 34, 6-chloro-7-(5,7-dihydro-6H-pyrrolo[3,4-b]pyridin-6-yl)-1-isobutyl-4-oxo-1,4-dihydro-1,8-naphthyridine-3-carboxylic acid], for which the IC50 was no more than 1000 nM.
In the case of `Cc1nn(-c2cc3c(cc2F)c(=O)c(C(=O)O)cn3-c2ccc(O)cc2F)cc1Br` [Example 11, 7-(4-bromo-3-methyl-1H-pyrazol-1-yl)-6-fluoro-1-(2-fluoro-4-hydroxyphenyl)-4-oxo-1,4-dihydroquinoline-3-carboxylic acid] it was no more than 1000 nM.
Consider `O=C(O)c1cn(-c2ccc(O)c(F)c2)c2cc(N3Cc4cccnc4C3)c(Cl)cc2c1=O` [Example 3, 6-chloro-1-(3-fluoro-4-hydroxyphenyl)-4-oxo-7-{5H,6H,7H-pyrrolo[3,4-b]pyridin-6-yl}-1,4-dihydroquinoline-3-carboxylic acid], for which the IC50 was no more than 1000 nM.
In the case of `O=C(O)c1cn(-c2ccc(O)cc2F)c2cc(N3Cc4cccc(F)c4C3)c(F)cc2c1=O` [Example 15, 6-fluoro-1-(2-fluoro-4-hydroxyphenyl)-7-(4-fluoroisoindolin-2-yl)-4-oxo-1,4-dihydroquinoline-3-carboxylic acid] it was no more than 1000 nM; in that of `Cc1cc(N(C)C)ncc1-n1cc(C(=O)O)c(=O)c2cc(Cl)c(N3Cc4cccnc4C3)nc21` [Example 146, 6-chloro-7-(5,7-dihydro-6H-pyrrolo[3,4-b]pyridin-6-yl)-1-(6-(dimethylamino)-4-methylpyridin-3-yl)-4-oxo-1,4-dihydro-1,8-naphthyridine-3-carboxylic acid], no more than 1000 nM; in that of `Cc1cc(N(C)CCN2CCCCC2)ncc1-n1cc(C(=O)O)c(=O)c2cc(Cl)c(N3Cc4cccnc4C3)nc21` [Example 177, 6-chloro-7-(5,7-dihydro-6H-pyrrolo[3,4-b]pyridin-6-yl)-1-(4-methyl-6-(methyl(2-(piperidin-1-yl)ethyl)amino)pyridin-3-yl)-4-oxo-1,4-dihydro-1,8-naphthyridine-3-carboxylic acid], no more than 1000 nM.
Consider `Cc1ccnc2c1CN(c1nc3c(cc1Cl)c(=O)c(C(=O)O)cn3-c1cnccn1)C2` [Example 64, 6-chloro-7-(4-methyl-5,7-dihydro-6H-pyrrolo[3,4-b]pyridin-6-yl)-4-oxo-1-(pyrazin-2-yl)-1,4-dihydro-1,8-naphthyridine-3-carboxylic acid], for which the IC50 is no more than 1000 nM.
On to `CN1CCC(n2cc(C(=O)O)c(=O)c3cc(Cl)c(N4Cc5cccnc5C4)cc32)CC1` [Example 121, 6-chloro-7-(5,7-dihydro-6H-pyrrolo[3,4-b]pyridin-6-yl)-1-(1-methylpiperidin-4-yl)-4-oxo-1,4-dihydroquinoline-3-carboxylic acid], for which the IC50 was no more than 1000 nM.
In the case of `O=C(O)c1cn(-c2ccc(O)cc2)c2cc(N3Cc4cccnc4C3)c(Cl)cc2c1=O` [Example 16, 6-chloro-7-(5,7-dihydro-6H-pyrrolo[3,4-b]pyridin-6-yl)-1-(4-hydroxyphenyl)-4-oxo-1,4-dihydroquinoline-3-carboxylic acid] it was no more than 1000 nM; in that of `CC(=O)N1CCC(n2cc(C(=O)O)c(=O)c3cc(Cl)c(N4Cc5cccnc5C4)cc32)CC1` [Example 126, 1-(1-acetylpiperidin-4-yl)-6-chloro-7-(5,7-dihydro-6H-pyrrolo[3,4-b]pyridin-6-yl)-4-oxo-1,4-dihydroquinoline-3-carboxylic acid], no more than 1000 nM; in that of `O=C(O)c1cn(-c2ccc(O)cc2)c2cc(N3Cc4cccnc4C3)c(F)cc2c1=O` [Example 18, 7-(5,7-dihydro-6H-pyrrolo[3,4-b]pyridin-6-yl)-6-fluoro-1-(4-hydroxyphenyl)-4-oxo-1,4-dihydroquinoline-3-carboxylic acid], no more than 1000 nM.
In the case of `Cc1cc(N)ncc1-n1cc(C(=O)O)c(=O)c2ccc(N3Cc4cccnc4C3)cc21` [Example 140, 1-(6-amino-4-methylpyridin-3-yl)-7-(5,7-dihydro-6H-pyrrolo[3,4-b]pyridin-6-yl)-4-oxo-1,4-dihydroquinoline-3-carboxylic acid] it was no more than 1000 nM; in that of `CCOc1cc2c(=O)c(C(=O)O)cn(-c3cnc(NC(=O)OC(C)(C)C)cc3C)c2cc1N1Cc2cccnc2C1` [Example 149, 1-(6-((tert-butoxycarbonyl)amino)-4-methylpyridin-3-yl)-7-(5,7-dihydro-6H-pyrrolo[3,4-b]pyridin-6-yl)-6-ethoxy-4-oxo-1,4-dihydroquinoline-3-carboxylic acid], no more than 1000 nM.
In the case of `Cc1cc(O)ncc1-n1cc(C(=O)O)c(=O)c2cc(C#N)c(N3Cc4cccnc4C3)cc21` [Example 60, 6-cyano-7-(5,7-dihydro-6H-pyrrolo[3,4-b]pyridin-6-yl)-1-(6-hydroxy-4-methylpyridin-3-yl)-4-oxo-1,4-dihydroquinoline-3-carboxylic acid] it was no more than 1000 nM.
